From publication PMC8138313, “Identification, Selection and Immune Assessment of Liver Stage CD8 T Cell Epitopes From Plasmodium falciparum” (Frontiers in Immunology, 2021)
Where a SMILES comes first, the peptide text is derived from it.

Columns and labels:
Experiment in all cases: HLA class I binding assay (cell-free competition, fluorescence polarization)
[1] = target: HLA A*0101 (Homo sapiens, UniProt P04439, A114D/A174V/A182V/D101N/D185E/E176A/E190D/L180R/Q94H/R68K/S129P/T187R/V100A/V91M/W191G)
[2] = target: HLA A*0301 (Homo sapiens, UniProt P04439)
[3] = target: HLA A*0201 (Homo sapiens, UniProt P04439, D140Y/D185E/D98H/E176V/E277Q/G131W/G231S/I119V/I121R/I166T/I218V/L300P/L318F/N151K/N90K/P208A/P217A/Q86G/Q94H/R138H/R169H/T345S)
[4] = target: HLA A*2402 (Homo sapiens, UniProt P04439, D101N/D140Y/D185E/E176V/E190D/F33S/G103R/G107R/I119L/I121M/I306V/K335N/L105A/L180Q/L300P/N151K/N90K/Q86E/Q94H/R106L/R138H/R89G/T104I/T345S/V100E/W191G/Y123F)

| Compound | IC50 [1] [µM] | also measured |
| --- | --- | --- |
| CC(C)C[C@H](NC(=O)[C@H](C)NC(=O)[C@H](CO)NC(=O)[C@@H](NC(=O)[C@H](CCCCN)NC(=O)[C@H](CC(=O)O)NC(=O)[C@H](CCCNC(=N)N)NC(=O)[C@@H](N)CS)[C@@H](C)O)C(=O)N[C@@H](Cc1ccc(O)cc1)C(=O)O (H-CRDKTSALY-OH; N-terminus assumed) | > 1000 |  |
| CC(C)C[C@H](NC(=O)[C@H](CC(=O)O)NC(=O)[C@H](CC(=O)O)NC(=O)[C@H](CO)NC(=O)[C@@H](N)CC(=O)O)C(=O)N[C@@H](CCCCN)C(=O)N[C@@H](CCC(=O)O)C(=O)N[C@@H](CO)C(=O)N[C@@H](Cc1ccc(O)cc1)C(=O)O (H-DSDDLKESY-OH) | 2.6 |  |
| CC(C)[C@H](NC(=O)[C@H](CCC(=O)O)NC(=O)[C@H](Cc1ccccc1)NC(=O)[C@@H](NC(=O)[C@@H](N)CC(=O)O)[C@@H](C)O)C(=O)N[C@@H](Cc1ccc(O)cc1)C(=O)N[C@@H](CO)C(=O)N[C@@H](CCC(=O)O)C(=O)N[C@@H](Cc1ccc(O)cc1)C(=O)O (H-DTFEVYSEY-OH; N-terminus assumed) | > 1000 | IC50 [2]: > 1000 µM |
| CC[C@H](C)[C@H](NC(=O)[C@@H](N)Cc1ccccc1)C(=O)N[C@@H](CC(=O)O)C(=O)N1CCC[C@H]1C(=O)N[C@@H](CCC(N)=O)C(=O)N[C@H](C(=O)N[C@@H](CCC(=O)O)C(=O)N[C@@H](CCSC)C(=O)N[C@@H](Cc1ccccc1)C(=O)N[C@@H](CCCCN)C(=O)O)[C@@H](C)O (H-FIDPQTEMFK-OH) | 46.6 | IC50 [2]: 8.1 µM |
| CC(C)C[C@H](NC(=O)[C@@H]1CCCN1C(=O)[C@H](Cc1ccccc1)NC(=O)[C@H](CC(N)=O)NC(=O)[C@H](Cc1ccccc1)NC(=O)[C@H](CC(N)=O)NC(=O)[C@H](CCC(=O)O)NC(=O)[C@H](CC(C)C)NC(=O)[C@@H](N)Cc1ccccc1)C(=O)O (H-FLENFNFPL-OH) | > 1000 | IC50 [3]: 3.68 µM |
| CC(C)[C@H](NC(=O)[C@H](CC(N)=O)NC(=O)[C@@H](NC(=O)[C@@H](N)Cc1ccccc1)[C@@H](C)O)C(=O)N[C@@H](CC(N)=O)C(=O)N[C@@H](CCC(N)=O)C(=O)N[C@@H](Cc1ccccc1)C(=O)N[C@@H](Cc1ccccc1)C(=O)N[C@@H](CCCCN)C(=O)O (H-FTNVNQFFK-OH) | > 1000 | IC50 [2]: 0.921 µM |
| NCCCC[C@H](NC(=O)[C@H](CO)NC(=O)CN)C(=O)N[C@@H](CC(N)=O)C(=O)N[C@@H](CC(=O)O)C(=O)N[C@@H](Cc1ccccc1)C(=O)N[C@@H](CCC(N)=O)C(=O)N[C@@H](CCC(N)=O)C(=O)N[C@@H](CCC(N)=O)C(=O)N[C@@H](Cc1ccc(O)cc1)C(=O)O (H-GSKNDFQQQY-OH; N-terminus assumed) | > 1000 |  |
| CC(C)C[C@H](NC(=O)CNC(=O)[C@@H]1CCCN1C(=O)[C@H](Cc1ccccc1)NC(=O)[C@@H](NC(=O)[C@H](CO)NC(=O)[C@@H](NC(=O)[C@@H](N)Cc1c[nH]cn1)[C@@H](C)O)C(C)C)C(=O)N[C@@H](Cc1ccc(O)cc1)C(=O)O (H-HTSVFPGLY-OH) | 5.65 |  |
| CC[C@H](C)[C@H](NC(=O)CNC(=O)[C@H](Cc1ccc(O)cc1)NC(=O)[C@@H](N)Cc1c[nH]cn1)C(=O)N[C@@H](CC(N)=O)C(=O)N1CCC[C@H]1C(=O)N[C@H](C(=O)N[C@@H](CCC(N)=O)C(=O)N[C@@H](CC(C)C)C(=O)O)C(C)C (H-HYGINPVQL-OH) |  | IC50 [4]: 6.79 µM |
| CC(C)[C@H](NC(=O)[C@H](CCCNC(=N)N)NC(=O)[C@H](CC(N)=O)NC(=O)[C@H](CCCCN)NC(=O)[C@H](Cc1ccc(O)cc1)NC(=O)[C@@H](NC(=O)[C@H](CC(N)=O)NC(=O)[C@H](Cc1ccc(O)cc1)NC(=O)[C@@H](N)Cc1c[nH]cn1)[C@@H](C)O)C(=O)N[C@@H](Cc1ccccc1)C(=O)O (H-HYNTYKNRVF-OH) |  | IC50 [4]: 3 µM |
| CC[C@H](C)[C@H](N)C(=O)N[C@H](C(=O)N[C@@H](CC(N)=O)C(=O)N[C@@H](CCCCN)C(=O)N[C@@H](CC(N)=O)C(=O)N[C@@H](CCCCN)C(=O)N[C@H](C(=O)N[C@H](C(=O)N[C@H](C(=O)N[C@@H](Cc1ccc(O)cc1)C(=O)O)[C@@H](C)CC)[C@@H](C)O)C(C)C)[C@@H](C)O (H-ITNKNKVTIY-OH) | > 1000 | IC50 [2]: 8.72 µM |
| CC[C@H](C)[C@H](N)C(=O)N[C@@H](Cc1c[nH]c2ccccc12)C(=O)N[C@@H](Cc1ccc(O)cc1)C(=O)N[C@@H](CCCCN)C(=O)N[C@@H](Cc1ccc(O)cc1)C(=O)N[C@H](C(=O)N[C@@H](CCC(=O)O)C(=O)N[C@@H](CO)C(=O)N[C@@H](CC(=O)O)C(=O)N[C@@H](Cc1ccccc1)C(=O)O)[C@@H](C)O (H-IWYKYTESDF-OH) |  | IC50 [4]: 1.12 µM |
| CC(C)[C@H](NC(=O)[C@H](CCC(=O)O)NC(=O)[C@H](Cc1ccccc1)NC(=O)[C@@H](NC(=O)[C@H](CC(=O)O)NC(=O)[C@H](CC(=O)O)NC(=O)[C@H](CCC(=O)O)NC(=O)[C@@H](N)CCCCN)[C@@H](C)O)C(=O)N[C@@H](Cc1ccc(O)cc1)C(=O)O (H-KEDDTFEVY-OH; N-terminus assumed) | > 1000 |  |
| CC[C@H](C)[C@H](NC(=O)[C@@H](N)CC(C)C)C(=O)N[C@@H](CO)C(=O)N[C@@H](CCCNC(=N)N)C(=O)N[C@@H](CC(C)C)C(=O)N[C@H](C(=O)N[C@@H](CC(C)C)C(=O)N[C@@H](CCCCN)C(=O)N[C@@H](Cc1ccc(O)cc1)C(=O)O)[C@@H](C)O (H-LISRLTLKY-OH) | 11.5 |  |
| CC[C@H](C)[C@H](NC(=O)[C@H](CC(N)=O)NC(=O)[C@H](CCC(=O)O)NC(=O)[C@@H](NC(=O)[C@H](CC(N)=O)NC(=O)[C@H](CO)NC(=O)[C@H](CO)NC(=O)[C@@H](N)CC(C)C)[C@@H](C)CC)C(=O)N[C@@H](Cc1ccc(O)cc1)C(=O)O (H-LSSNIENIY-OH) | 29.6 |  |
| CC(C)C[C@H](N)C(=O)N[C@H](C(=O)N[C@@H](Cc1c[nH]cn1)C(=O)N[C@@H](CCCCN)C(=O)N[C@@H](Cc1ccc(O)cc1)C(=O)N[C@@H](CC(N)=O)C(=O)N[C@@H](CCC(=O)O)C(=O)N[C@@H](Cc1ccccc1)C(=O)N[C@H](C(=O)O)C(C)C)[C@@H](C)O (H-LTHKYNEFV-OH) | 174 | IC50 [3]: 2.41 µM |
| CSCC[C@H](NC(=O)[C@H](CC(N)=O)NC(=O)[C@H](CC(N)=O)NC(=O)[C@H](CCCNC(=N)N)NC(=O)[C@H](Cc1ccccc1)NC(=O)[C@H](CC(N)=O)NC(=O)[C@H](CC(N)=O)NC(=O)[C@@H](N)CC(N)=O)C(=O)N[C@@H](Cc1ccc(O)cc1)C(=O)O (H-NNNFRNNMY-OH; N-terminus assumed) | > 1000 |  |
| CC[C@H](C)[C@H](NC(=O)[C@H](CC(C)C)NC(=O)[C@H](CC(=O)O)NC(=O)[C@H](CC(C)C)NC(=O)[C@H](CCCCN)NC(=O)[C@H](CC(=O)O)NC(=O)[C@H](CO)NC(=O)[C@@H](N)CC(N)=O)C(=O)N[C@@H](Cc1ccc(O)cc1)C(=O)O (H-NSDKLDLIY-OH) | 0.875 |  |
| CC(C)[C@H](NC(=O)[C@H](CC(N)=O)NC(=O)[C@@H]1CCCN1C(=O)[C@H](CO)NC(=O)[C@@H](N)CC(N)=O)C(=O)N[C@@H](CC(N)=O)C(=O)N[C@@H](CCCCN)C(=O)N[C@@H](CCCNC(=N)N)C(=O)N[C@@H](Cc1ccc(O)cc1)C(=O)O (H-NSPNVNKRY-OH; N-terminus assumed) | > 1000 |  |
| CC(C)C[C@H](NC(=O)[C@H](C)NC(=O)[C@H](CC(=O)O)NC(=O)[C@H](Cc1ccccc1)NC(=O)[C@@H](NC(=O)[C@@H](N)CC(N)=O)[C@@H](C)O)C(=O)N[C@@H](Cc1ccc(O)cc1)C(=O)N[C@@H](Cc1ccc(O)cc1)C(=O)N[C@H](C(=O)O)C(C)C (H-NTFDALYYV-OH) | > 1000 | IC50 [3]: 8.76 µM |
| CC(C)[C@H](NC(=O)[C@@H](NC(=O)[C@@H](N)CC(N)=O)[C@@H](C)O)C(=O)N[C@@H](CCCCN)C(=O)N[C@@H](CS)C(=O)N1CCC[C@H]1C(=O)N[C@@H](CC(N)=O)C(=O)N[C@@H](CC(=O)O)C(=O)N[C@@H](Cc1ccc(O)cc1)C(=O)O (H-NTVKCPNDY-OH) | 282 |  |
| C[C@H](NC(=O)[C@H](CO)NC(=O)[C@@H](N)CO)C(=O)N[C@@H](CC(N)=O)C(=O)N[C@@H](CC(=O)O)C(=O)N[C@@H](CCC(=O)O)C(=O)N[C@@H](CCC(N)=O)C(=O)N[C@@H](CO)C(=O)N[C@@H](Cc1ccc(O)cc1)C(=O)O (H-SSANDEQSY-OH) | 65 |  |
| CC[C@H](C)[C@H](NC(=O)[C@H](CC(=O)O)NC(=O)[C@@H](NC(=O)[C@@H](N)CO)[C@@H](C)O)C(=O)N[C@H](C(=O)N[C@@H](Cc1ccccc1)C(=O)N[C@@H](CC(C)C)C(=O)N[C@H](C(=O)N[C@@H](CCSC)C(=O)N[C@@H](CCCCN)C(=O)O)[C@@H](C)O)[C@@H](C)CC (H-STDIIFLTMK-OH) | > 1000 | IC50 [2]: 8.78 µM |
| CSCC[C@H](NC(=O)[C@H](CC(N)=O)NC(=O)[C@H](CCC(N)=O)NC(=O)[C@H](CC(N)=O)NC(=O)[C@H](C)NC(=O)[C@H](CCSC)NC(=O)[C@@H](N)[C@@H](C)O)C(=O)N[C@@H](CC(N)=O)C(=O)N[C@@H](Cc1ccc(O)cc1)C(=O)O (H-TMANQNMNY-OH) | 2.02 | IC50 [2]: 0.943 µM |
| C[C@@H](O)[C@H](N)C(=O)N[C@@H](CO)C(=O)N[C@@H](CCCCN)C(=O)N[C@@H](CCC(N)=O)C(=O)NCC(=O)N[C@@H](CO)C(=O)N[C@@H](CO)C(=O)N[C@@H](CC(N)=O)C(=O)N[C@@H](CCCCN)C(=O)N[C@@H](Cc1ccc(O)cc1)C(=O)O (H-TSKQGSSNKY-OH; N-terminus assumed) | > 1000 |  |
| CC(C)[C@H](NC(=O)[C@H](CO)NC(=O)[C@H](CCC(=O)O)NC(=O)[C@H](Cc1ccccc1)NC(=O)[C@H](Cc1ccccc1)NC(=O)[C@@H](NC(=O)[C@@H](N)[C@@H](C)O)[C@@H](C)O)C(=O)N[C@@H](CO)C(=O)N[C@@H](Cc1ccc(O)cc1)C(=O)O (H-TTFFESVSY-OH) | 338 | IC50 [2]: 658 µM |
